One test deals with phospho-ERK (p-ERK). Nature of the test: Western blot for phospho-ERK in Meta3 and Meta4 organoids. Type of test: cell-based, mouse. The method, then:
FIG. 3C-3D show the Western blot analysis for p-STAT3 and p-ERK in Meta3 and Meta4 organoids (FIG. 3C) and ratios of p-STAT3/total STAT3 and p-ERK/total ERK (FIG. 3D). […] FIG. 3F-3G show phase-contrast images of Meta4 organoids treated with DMSO, Pyr (100 nM), STAT3-IN-1 (1 μM), Stattic (2 μM), and Cryptotanshinone (CPT) (5 μM) for 3 days (FIG. 3F), and quantitation of organoid diameters before and after treatment (FIG. 3G). FIG. 3H-3I show phase-contrast images of Meta4 organoids treated with DMSO, trametinib (Tra), STAT3-IN-1, combination of Tra and STAT3-IN-1, and Pyr, for 3 days (FIG. 3H), and quantitation of organoid diameters before and after treatment (FIG. 3I). FIG. 3J-3K show western blot for p-STAT3 and p-ERK after treatment of Tra, Pyr, and SSTC3 (FIG. 3J) and ratios of p-STAT3/t-STAT3 and p-ERK/t-ERK (FIG. 3K). […] Relative quantification of each gene expression level was normalized to GAPDH gene expression. Shading scale represents the mRNA expression values. FIG. 3M show representative mRNA of Pim-1 and Cyclin-B1 after treatment. Mean±standard deviation. […] Scale bar=500 μM.
Total proteins were extracted from organoids using radioimmunoprecipitation assay buffer (10 mmol/L Tris-HC, pH 7.2, 150 mmol/L NaCl, 5 mmol/L EDTA, 0.1% sodium dodecyl sulfate, 1.0% Triton X-100, 1% deoxycholate) with protease inhibitors. The protein concentration was measured The Bio-Rad Protein Assay (Bio-Rad Laboratories, Hercules, CA). 5 to 10 μg of total protein was loaded onto 12.5% or 10% sodium dodecyl sulfate/polyacrylamide gel electrophoresis (PAGE) and transferred onto polyvinylidene difluoride membranes (Millipore, Billerica, MA). […] After washes with TBS-T, chemiluminescence was detected with an Amersham Imager 680 instrument (GE Healthcare) after 1 mL of the SuperSignal West Femto Maximum Sensitivity Substrate (ThermoFisher) was applied to the membranes.
On the technique in general: A western blot detects proteins with antibodies after separation by electrophoresis.

Test [1] has as its system STAT pathway / STAT3^Y705 phosphorylation. Nature of the test: Phospho-antibody array in Meta3 and Meta4 organoids. It counts as cell-based, mouse. As to conditions: pyrvinium, 3 days. An excerpt: Shading scale represents standardized log 2(FDR) values. […] Each square represents the signal ratio of the antibody against the unphosphorylated form of the site. FIG. 2E schematically illustrates how the STAT3 and DPPs in RAS/MAPK pathway is affected by Pyr treatment in precancerous organoids.
The top 10 protein candidates were selected, including p-MYC^T358, p-PKCtheta^T538, p-C-Raf^S43 p-STAT3^Y705, p-Pyk2^T580, p-Histone H3.1^S10, p-CREB^T100, p-Pyk2^T881, p-SRF^S77, and p-ERK1/2(p44/42)^T202(FIG. 2C-2D). As the organoids were derived from Mist1-Kras mice, it is not surprising that many proteins on the list are directly related to MAPK and PKC signaling pathways, with the exception of STAT3 (FIG. 2E).

In test [2] the test system is Meta4 organoids. The test can be described thus: Meta4 dysplastic organoid growth and cell death (organoid diameter, phase-contrast, H&E, live/dead staining). It counts as cell-based, mouse. Particulars: pyrvinium 100 nM, SSTC3 0.2-1 μM, STAT3-IN-1 1 μM, Sttatic 2 μM, 3 days. The method, then:
All experiments were repeated at least three times.
All experiments were performed at least in triplicate.

For the next test, the system named is p-ERK. Nature of the test: Western blot for phospho-ERK in hPCO lines. It counts as cell-based, human. The text has this: FIG. 7C-7D show Western blot analysis for p-STAT3 and p-ERK in three Pyr-resistant hPCO lines after Pyr treatment (FIG. 7C) and ratios of p-STAT3/t-STAT3 and p-ERK/t-ERK (FIG. 7D). FIG. 7E-7F show a Western blot for basal p-STAT3 and p-ERK levels in Pyr-sensitive and Pyr-resistant hPCO lines (FIG. 7E), and ratios of p-STAT3/t-STAT3 and p-ERK/t-ERK (FIG. 7F). FIG. 7G-7H show a Western blot for p-STAT3 and p-ERK in hPCO-3 after treatment of trametinib (Tra), Pyr, and their combinations (FIG. 7G), and ratios of p-STAT3/t-STAT3 and p-ERK/t-ERK (FIG. 7H). […] FIG. 7K-7L show phase-contrast images of Pyr-sensitive hPCO-2 treated with DMSO, Pyr, STAT3-IN-1, Sttatic, and Cryptotanshinone (CPT) for 6 days (FIG. 7K) and quantitation of organoid diameters before and after treatment (FIG. 7L). Mean±standard deviation. […]
Total proteins were extracted from organoids using radioimmunoprecipitation assay buffer (10 mmol/L Tris-HC, pH 7.2, 150 mmol/L NaCl, 5 mmol/L EDTA, 0.1% sodium dodecyl sulfate, 1.0% Triton X-100, 1% deoxycholate) with protease inhibitors. The protein concentration was measured The Bio-Rad Protein Assay (Bio-Rad Laboratories, Hercules, CA). […] After washes with TBS-T, chemiluminescence was detected with an Amersham Imager 680 instrument (GE Healthcare) after 1 mL of the SuperSignal West Femto Maximum Sensitivity Substrate (ThermoFisher) was applied to the membranes.

The next test concerns CD133 and CD166. Nature of the test: qRT-PCR of dysplastic stem cell markers in Meta4 organoids. Type of test: cell-based, mouse. As to conditions: pyrvinium-treated vs DMSO. The method, then: FIG. 4D-4E show lusters of dysplastic stem cells (DSCs) differentiated cells or damaged cells in a superimposed UMAP plot (FIG. 4D) and their proportions in DMSO-treated and Pyr-treated Meta4 samples (FIG. 4E).
Total RNAs were extracted from Meta3 or Meta4 organoids using the Trizol (Invitrogen) reagent. cDNAs were synthesized using iScript gDNA clear cDNA synthesis kit (Bio-Rad) and RT-PCR was performed using SsoAdvanced™ Universal SYBR Green supermix (Bio-Rad) and a CFX96 Real-Time PCR Detection System (Bio-Rad). GAPDH, a house keeping gene, was used to normalize gene expression levels. All reactions were performed in triplicate and relative gene expression levels were obtained by the comparative ΔΔCt method using CFX Maestro software (Bio-Rad).
Background: In qPCR the cycle at which signal appears reflects the starting amount.

Test [3] concerns Meta4 organoids. As to conditions: pyrvinium, 1 day.
In test [4] the test system is human pre-cancerous organoid (hPCO) lines. The test can be described thus: Human precancerous organoid (hPCO) growth and organoid death.
Experimental: To establish human pre-cancer organoids (hPCO), fresh tissues were obtained from the gastric cancer patients who underwent curative gastrectomy at SNUH (IRB No. H-1806-166-954).
Meta3, Meta4, and hPCO organoids were cultured in Matrigel (ECM, Sigma) with Mouse or Human IntestiCult medium (StemCell Technology) supplemented with 1% of penicillin/streptomycin (Gibco) in 48-well plates and medium was replaced every 3 days. The organoids were split every 5-7 days before they formed budding structures.
Mouse or human organoids were split and cultured in the Mouse or Human IntestiCult media for 1-2 days until they formed three-dimensional (3D) spherical structures, then the media was switched to media containing either DMSO vehicle or a certain concentration of each drug and cultured for 3 days. The EVOS M7000 inverted microscope were used to obtain phase contrast images of organoids. All experiments were repeated at least three times.
The number and diameters of mouse and human organoids treated with drugs were manually counted and measured at day 0 and 3 or 6 after treatment from four entire well images of each condition at 4× magnification. For counting live or dead cells, organoids were stained with Calcein AM for live cells and EthD-1 for dead cells 3 days after treatment and the number of EthD-1 positive organoids were manually counted from images taken from three wells of each condition at 4× magnification. All experiments were performed at least in triplicate. The mean values from each condition were compared by Student's paired or unpaired t-test using Graphpad Prism. *P<0.05, **P<0.01, ***P<0.001, ****P<0.0001.
Test [5] deals with Meta4 organoids. Nature of the test: FACS analysis of Meta4 organoids (7-AAD/annexin V; CD133/CD166). It counts as cell-based, mouse. A general note: In flow cytometry, cells or beads pass a laser one at a time.

In the case of `Cc1cc(/C=C/c2ccc3cc(N(C)C)ccc3[n+]2C)c(C)n1-c1ccccc1` [pyrvinium], the “phosphorylation of ERK” value in the test on phospho-ERK (p-ERK) (Meta3) is on record as “reduced phosphorylation”. In addition, the p-ERK levels entry in the test with phospho-ERK (p-ERK) (Meta4, 3 days) is given as “significant decrease”. Besides, the “most prominent effect on protein phosphorylation (phospho-array)” value in test [1] (Meta3 and Meta4) was “dephosphorylation of proteins related to the STAT pathway”. Moreover, the “STAT3^Y705 phosphorylation (phospho-array)” value in test [1] is “loss”. The “organoid size / growth” value with Meta4 organoids [2] is listed as “reduction in organoid size”. Further, the p-ERK levels entry in the test with p-ERK (three pyrvinium-resistant hPCO lines) was “no significant differences”. The p-ERK levels result in the test with p-ERK (three pyrvinium-sensitive hPCO lines) is “decreased”. Besides, the “CD133 and CD166 gene expression” value in the test with CD133 and CD166 is reported as “decreases”. Further, in the test on Meta4 organoids [3], the “DSC (dysplastic stem cell) subpopulation” value was “not observed”; the “STAT3-target genes Fos, Fosb, and Jun” value is on record as “downregulated”; the “binding and transcription regulator activities (PANTHER gene ontology)” value is “decreased”; the “cells damaged and mostly differentiated cells among treated cells” value is listed as “over 73.9%”. In addition, the “damage-related genes Dusp4, Ddit3 and Areg” value in the test with Meta4 organoids [3] was “upregulated”. In addition, the “growth of metaplastic cells in hPCO lines” value in test [4] (hPCO with metaplastic features) is recorded as “growth arrest”. Besides, in test [4] (of twenty hPCO lines, 6 days), the “number of hPCO lines classified pyrvinium-moderate” value is “six”, the “number of hPCO lines classified pyrvinium-resistant” value was “nine” and the “number of hPCO lines classified pyrvinium-sensitive” value is listed as “Five”. In the test with Meta4 organoids [5] (pyrvinium-treated), the “CD133^+CD166^+ DSCs (FACS)” value is “significant decrease”. Moreover, the “7-AAD and Annexin V expression” value with Meta4 organoids [5] (pyrvinium-treated cells) is reported as “increase”.
